Counter-ions that a name gives are not always drawn. Some results are limits rather than exact numbers.

Sequence of human activated kallikrein enzyme (P03952 391-638 limits assumed): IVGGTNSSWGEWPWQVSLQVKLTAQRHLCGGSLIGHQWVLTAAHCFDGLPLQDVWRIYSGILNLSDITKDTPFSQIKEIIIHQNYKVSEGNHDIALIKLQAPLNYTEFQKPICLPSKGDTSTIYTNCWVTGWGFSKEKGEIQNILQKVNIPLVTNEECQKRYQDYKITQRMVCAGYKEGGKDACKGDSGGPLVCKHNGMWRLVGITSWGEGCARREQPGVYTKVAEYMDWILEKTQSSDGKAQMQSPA
Sequence of human activated kallikrein enzyme (P03952 20-390 partner limits assumed): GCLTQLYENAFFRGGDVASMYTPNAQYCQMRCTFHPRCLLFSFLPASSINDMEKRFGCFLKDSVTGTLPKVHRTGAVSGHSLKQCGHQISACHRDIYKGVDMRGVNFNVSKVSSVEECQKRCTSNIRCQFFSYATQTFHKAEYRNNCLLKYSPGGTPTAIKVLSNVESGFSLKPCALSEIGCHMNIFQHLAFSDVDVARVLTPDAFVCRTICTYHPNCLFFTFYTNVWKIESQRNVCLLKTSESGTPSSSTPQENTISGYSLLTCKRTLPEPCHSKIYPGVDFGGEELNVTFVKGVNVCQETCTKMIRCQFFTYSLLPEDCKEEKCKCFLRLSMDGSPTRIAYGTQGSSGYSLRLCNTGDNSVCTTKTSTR

In the test the target is human activated kallikrein enzyme (Homo sapiens, UniProt P03952). Put plainly: Inhibition of human activated plasma kallikrein, fluorogenic PFR-AMC substrate, 500 pM enzyme format. It is filed as biochemical. The conditions noted are these: 500 pM activated kallikrein; 300 μM PFR-AMC; 30 min preincubation; 10 min room temperature; pH 7.5; read-out: Primary Dose Response Assay: Average EC50. Put shortly:
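Using fluorogenic PFR-AMC at 300 μM, cleavage by 500 pM human activated kallikrein ran 10 min at room temperature, read at 460 nm emission (380 nm excitation). Enzyme and compounds were first preincubated 30 min in 20 mM Tris pH 7.5, 150 mM NaCl, 1 mM EDTA, 0.1% PEG-400, 0.1% Triton X-100.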
Consider `Cc1cc2c(N)nccc2c(C)c1CNc1cc(NC(C)c2ccc(Cc3ccccn3)cc2)ncn1` (stereo not drawn) [Example 366, N^4-((1-amino-5,7-dimethylisoquinolin-6-yl)methyl)-N^6-(1-(4-(pyridin-2-ylmethyl)phenyl)ethyl)pyrimidine-4,6-diamine], for which the EC50 – broadly, the concentration needed to bring the measured effect to its halfway point – was under 0.001 µM. To `Cc1cc2c(N)nccc2c(C)c1CNc1cc(OCc2cccc(-n3ccccc3=O)c2)cnn1` [Example 435, 1-(3-(((6-(((1-amino-5,7-dimethylisoquinolin-6-yl)methyl)amino)pyridazin-4-yl)oxy)methyl)phenyl)pyridin-2(1H)-one] belongs 0.001 to 0.01 µM.

For `Cc1cc2c(N)nccc2c(C)c1CNc1cc(NCc2ccc(Cn3cccn3)cc2C(F)(F)F)ncn1` [Example 380, N^4-(4-((1H-pyrazol-1-yl)methyl)-2-(trifluoromethyl)benzyl)-N^6-((1-amino-5,7-dimethylisoquinolin-6-yl)methyl)pyrimidine-4,6-diamine], the EC50 lay in the range of 0.001 to 0.01 µM.

On to `Cc1cc2c(Nc3cc4c(cn3)nnn4Cc3cn4cc(C5CC5)ccc4n3)nccc2c(C)c1CN` [Example 502, 6-((l2-azanyl)methyl)-N-(1-((6-cyclopropylinmidazo[1,2-a]pyridin-2-yl)methyl)-1H-[1,2,3]triazolo[4,5-c]pyridin-6-yl)-5,7-dimethylisoquinolin-1-amine], for which the half-maximal effective concentration (EC50) was over 1 µM. Consider `Cc1cc2c(N)nccc2c(C)c1CNc1cc(N(C)Cc2ccc3ncccc3c2)cnn1` [Example 428, N^3-((1-amino-5,7-dimethylisoquinolin-6-yl)methyl)-N^5-methyl-N^5-(quinolin-6-ylmethyl)pyridazine-3,5-diamine], for which the EC50 was in the range of 0.001 to 0.01 µM.

As for `Cc1cc2c(N)nccc2c(C)c1CNc1cc(NCc2ccc3ncccc3c2)c(C(N)=O)nn1` [Example 452, 6-(((1-amino-5,7-dimethylisoquinolin-6-yl)methyl)amino)-4-((quinolin-6-ylmethyl)amino)pyridazine-3-carboxamide], the EC50 is 0.01 to 0.1 µM. To `Cc1cc2c(N)nccc2c(C)c1CNC(=O)c1cnn(Cc2ccc(CC(=O)N3CCC3)c(Cl)c2)c1` [Example I-473, N-((1-amino-5,7-dimethylisoquinolin-6-yl)methyl)-1-(4-(2-(azetidin-1-yl)-2-oxoethyl)-3-chlorobenzyl)-1H-pyrazole-4-carboxamide] belongs under 0.001 µM; to `Cc1cc2c(N)nccc2c(C)c1CNc1cc(NCc2cn3cc(C#N)ccc3n2)ncn1` [Example 332, 2-(((6-(((1-amino-5,7-dimethylisoquinolin-6-yl)methyl)amino)pyrimidin-4-yl)amino)methyl)imidazo[1,2-a]pyridine-6-carbonitrile], 0.001 to 0.01 µM; to `Cc1ccc2nc(COc3cnnc(NCc4c(C)cc5c(N)nccc5c4C)c3)cn2c1` [Example 425, 5,7-dimethyl-6-(((5-((6-methylimidazo[1,2-a]pyridin-2-yl)methoxy)pyridazin-3-yl)amino)methyl)isoquinolin-1-amine], under 0.001 µM.

In the case of `C/C=C(/c1ccc(CNc2cc(NCc3c(C)cc4c(N)nccc4c3C)ncn2)cc1)n1cccn1` [Example I-483, (Z)—N^4-(4-(1-(1H-pyrazol-1-yl)prop-1-en-1-yl)benzyl)-N^6-((1-amino-5,7-dimethylisoquinolin-6-yl)methyl)pyrimidine-4,6-diamine], the concentration giving a half-maximal response (EC50) is under 0.001 µM. For `Cc1cc2c(N)nccc2c(C)c1CNc1cc(NCc2ccc(Cn3cccn3)cc2F)cnn1` [Example 385, N^5-(4-((1H-pyrazol-1-yl)methyl)-2-fluorobenzyl)-N^3-((1-amino-5,7-dimethylisoquinolin-6-yl)methyl)pyridazine-3,5-diamine], the EC50 was under 0.001 µM. Turning to `Cc1cc2c(N)nccc2c(C)c1CNc1cc(NCc2cc3c(Cl)cccc3cn2)ncn1` [Example 328, N^4-((1-amino-5,7-dimethylisoquinolin-6-yl)methyl)-N^6-((5-chloroisoquinolin-3-yl)methyl)pyrimidine-4,6-diamine, formic acid salt], the EC50 lay in the range of 0.001 to 0.01 µM.

For the compound `Cc1cc2c(N)nccc2c(C)c1CNC(=O)c1cnn(Cc2ccc(CC(=O)N3C[C@@H]4[C@H](C3)[C@H]4C(=O)O)cc2)c1` [Example 213, (1R,5S,6r)-3-(2-(4-((4-(((1-amino-5,7-dimethylisoquinolin-6-yl)methyl)carbamoyl)-1H-pyrazol-1-yl)methyl)phenyl)acetyl)-3-azabicyclo[3.1.0]hexane-6-carboxylic acid], the EC50 is 0.01 to 0.1 µM. As for `Cc1cc2c(N)nccc2c(C)c1CNC(=O)c1ccnc(C(=O)c2cn3cc(C4CC4)ccc3n2)c1` [Example 189, N-((1-amino-5,7-dimethylisoquinolin-6-y1)methyl)-2-(6-cyclopropylimidazo[1,2-a]pyridine-2-carbonyl)isonicotinamide], the figure is 0.1 to 1 µM. As for `Cc1cc2c(N)nccc2c(C)c1CNC(=O)c1cn(Cc2ccc(CC(=O)N3CC4CC4C3)cc2)cc1F` (stereo not drawn) [Example I-479, 1-(4-(2-(3-azabicyclo[3.1.0]hexan-3-yl)-2-oxoethyl)benzyl)-N-((1-amino-5,7-dimethylisoquinolin-6-yl)methyl)-4-fluoro-1H-pyrrole-3-carboxamide], the figure is under 0.001 µM; as for `Cc1cc2c(N)nccc2c(C)c1CNc1ccc2ncc(Cc3ccc4ccccc4c3)n2c1` [Example 522, 5,7-dimethyl-6-(((3-(naphthalen-2-ylmethyl)imidazo[1,2-a]pyridin-6-yl)amino)methyl)-isoquinolin-1-amine], over 1 µM. On to `Cc1ccn2cc(Cn3cc(C(=O)NCc4c(C)cc5c(N)nccc5c4C)cn3)nc2c1` [Example 103, N-((1-amino-5,7-dimethylisoquinolin-6-yl)methyl)-1-((7-methylimidazo[1,2-a]pyridin-2-yl)methyl)-1H-pyrazole-4-carboxamide], for which the EC50 is under 0.001 µM.

As for `CC(=O)Nc1nccc2c(C)c(CNC(=O)c3cnn(Cc4cn5cc(C)ccc5n4)c3)c(C)cc12` [Example 8, N-((1-acetamido-5,7-dimethylisoquinolin-6-yl)methyl)-1-((6-methylimidazo[1,2-a]pyridin-2-yl)methyl)-1H-pyrazole-4-carboxamide], the EC50 lay in the range of 0.01 to 0.1 µM. As for `Cc1cc2c(N)nccc2c(C)c1CNC(=O)c1cnn(Cc2cccc(C3CC3)c2)c1` [Example 31, N-((1-amino-5,7-dimethylisoquinolin-6-yl)methyl)-1-(3-cyclopropylbenzyl)-1H-pyrazole-4-carboxamide], the figure is 0.001 to 0.01 µM. Consider `Cc1cc2c(N)nccc2c(C)c1CNC(=O)c1cnn(C(CN)c2ccccc2)c1` (stereo not drawn) [Example 180, 1-(2-amino-1-phenylethyl)-N-((1-amino-5,7-dimethylisoquinolin-6-yl)methyl)-1H-pyrazole-4-carboxamide], for which the EC50 fell in the range of 0.1 to 1 µM. Regarding `COCc1nn(Cc2ccc(Cn3cccn3)cc2)cc1C(=O)NCc1c(C)cc2c(N)nccc2c1C` [Example 187, 1-(4-((1H-pyrazol-1-yl)methyl)benzyl)-N-((1-amino-5,7-dimethylisoquinolin-6-yl)methyl)-3-(methoxymethyl)-1H-pyrazole-4-carboxamide], the EC50 is under 0.001 µM. As for `Cc1cc2c(N)nccc2c(C)c1CNc1nccc2cn(Cc3cn4cc(C5CC5)ccc4n3)nc12` [Example 271, 6-(((2-((6-cyclopropylimidazo[1,2-a]pyridin-2-yl)methyl)-2H-pyrazolo[3,4-c]pyridin-7-yl)amino)methyl)-5,7-dimethylisoquinolin-1-amine], the figure is under 0.001 µM.

Take `Cc1cc2c(N)nccc2c(C)c1CNc1cnc2[nH]cc(Cc3ccc4ccccc4c3)c2c1` [Example 527, 5,7-dimethyl-6-(((3-(naphthalen-2-ylmethyl)-1H-pyrrolo[2,3-b]pyridin-5-yl)amino)methyl)isoquinolin-1-amine]: the EC50 was over 1 µM.

Take `Cc1cc2c(N)nccc2c(C)c1CNC(=O)c1cnn(Cc2cnccn2)c1` [Example 86, N-((1-amino-5,7-dimethylisoquinolin-6-yl)methyl)-1-(pyrazin-2-ylmethyl)-1H-pyrazole-4-carboxamide]: the EC50 was 0.1 to 1 µM. To `Cc1cc2c(N)nccc2c(C)c1CNC(=O)c1cnn(Cc2ccc(CC(=O)N(C)CC3CC3)cc2)c1` [Example 204, N-((1-amino-5,7-dimethylisoquinolin-6-yl)methyl)-1-(4-(2-((cyclopropylmethyl)(methyl)amino)-2-oxoethyl)benzyl)-1H-pyrazole-4-carboxamide] belongs 0.001 to 0.01 µM; to `Cc1c(CNC(=O)c2cnn(Cc3cn4cc(C5CC5)ccc4n3)c2)c(C)c2ccnc(N)c2c1C` [Example 191, N-((1-amino-5,7,8-trimethylisoquinolin-6-yl)methyl)-1-((6-cyclopropylimidazo[1,2-a]pyridin-2-yl)methy1)-1H-pyrazole-4-carboxamide], 0.01 to 0.1 µM; to `Cc1cc2c(N)nccc2c(C)c1CNC(=O)c1cnn(Cc2ncccn2)c1` [Example 83, N-((1-amino-5,7-dimethylisoquinolin-6-yl)methyl)-1-(pyrimidin-2-ylmethyl)-1H-pyrazole-4-carboxamide], 0.1 to 1 µM. `Cc1cc2c(N)nccc2c(C)c1CNC(=O)c1cnn(Cc2cn3c(Br)cccc3n2)c1` [Example 139, N-((1-amino-5,7-dimethylisoquinolin-6-yl)methyl)-1-((5-bromoimidazo[1,2-a]pyridin-2-yl)methyl)-1H-pyrazole-4-carboxamide]: the EC50 was under 0.001 µM. To `Cc1cc2c(N)nccc2c(C)c1CNc1cc(OCc2ccc(Cn3cccn3)nc2)ncn1` [Example 300, 6-(((6-((6-((1H-pyrazol-1-yl)methyl)pyridin-3-yl)methoxy)pyrimidin-4-yl)amino)methyl)-5,7-dimethylisoquinolin-1-amine] belongs 0.1 to 1 µM. As for `Cc1cc2c(N)nccc2c(C)c1CNc1cc(NCc2ccc3c(c2)N(C)C(=O)CO3)ncn1` [Example 327, 6-(((6-(((1-amino-5,7-dimethylisoquinolin-6-yl)methyl)amino)pyrimidin-4-yl)amino)methyl)-4-methyl-2H-benzo[b][1,4]oxazin-3(4H)-one, formic acid salt], the EC50 fell in the range of 0.001 to 0.01 µM.
